How the values were obtained:
Staphylococcus aureus [1] = test: Inhibition of yellow pigment production in methicillin-resistant Staphylococcus aureus at 20 ug/6mm disk after 68 hrs by paper disk method; type: functional
Staphylococcus aureus [2] = test: Toxicity in methicillin-resistant Staphylococcus aureus assessed as growth inhibition at 20 ug/6mm disk after 68 hrs; type: organism-based; conditions: in vitro

## COC(=O)[C@]1(O)C(c2ccc(O)cc2)=C(O)C(=O)[C@]1(O)c1ccc(O)cc1
Staphylococcus aureus [1]
  inhibition zone (IZ): 7 mm
Staphylococcus aureus [2]
  Activity: Non-toxic

## COC(=O)[C@]1(O)C(c2ccc(O)cc2)=C(O)C(=O)[C@]1(OC)c1ccc(O)cc1
Staphylococcus aureus [1]
  inhibition zone (IZ): 9 mm
Staphylococcus aureus [2]
  Activity: Non-toxic

## COC(=O)[C@@]1(O)C(c2ccc(O)cc2)=C(O)C(=O)[C@@]1(OC)c1ccc(O)cc1
Staphylococcus aureus [1]
  inhibition zone (IZ): 8 mm
Staphylococcus aureus [2]
  Activity: Non-toxic

## COC(=O)[C@@]1(O)C(c2ccc(O)cc2)=C(O)C(=O)[C@@]1(O)c1ccc(O)cc1
Staphylococcus aureus [1]
  inhibition zone (IZ): 7 mm
Staphylococcus aureus [2]
  Activity: Non-toxic
